Patent publication US20170348306A1, “METHODS OF TREATING CANCER” (GLAXOSMITHKLINE LLC, priority 2011, published 2017)

How the values were obtained:
Assay in all cases: Cell proliferation assay (6 days, CellTiter-Glo)
Format in all cases: cell-based
OCI-LY-19 = settings: Homo sapiens, OCI-LY19, 144 h, DLBCL, EZH2 WT, read-out: AVERAGE GROWTH IC50
Source text: (§1) Thus, Example 22 and Table 6 better reflect the inhibition of HZH2 inhibitors on cell lines, e.g. the lymphoma cell lines. DLBCL cell lines were the most sensitive to EZH2 inhibition (FIG. 11a). […] Evaluation of GSK126 in additional lymphoma cell lines and extensive genomic and epigenomic characterization will be required to fully elucidate the determinants of sensitivity among lymphoma subtypes.
(§2) Biochemical assays utilized the 5-member PRC2 complex (human Flag-EZH2, EED, SUZ12, AEBP2, RbAp48) containing either WT or mutant EZH2, [^3H-]SAM and the indicated peptide substrate; reactions were incubated for 30 minutes. Global histone modification levels were determined by ELISA or western blot methods using antibodies specific for total histone H3, H3K27me1, H3K27me2, or H3K27me3. Cell proliferation and Caspase-3/7 activity were assessed using CellTiter-Glo and Caspase-Glo 3/7 (Promega), respectively. Gene expression profiling was conducted using Affymetrix Human Genome U133 Plus 2.0 microarrays. Differentially-expressed probe sets were determined by fitting the data to a linear model using the limma statistical package (http://www.bioconductor.org) and carrying out pair-wise contrasts of treated versus control. Significant probe sets were filtered for detection (log2 signal threshold of 8), an average fold-change >2 or <−2, or >1.5 or <−1.5, where indicated, with p-values adjusted for multiple testing correction by FDR (Benjamini Hochberg)<0.1. H3K27me3 ChIP reads were aligned using Bowtie (56). H3K27me3 enrichment peaks were identified using SICER (57) with optimized parameters. A custom PERL script was utilized to quantify the average basal H3K27me3 ChIP-seq tag density across gene sets. All in vivo studies were conducted after review by the Institutional Animal Care and Use Committee at GSK and in accordance with the GSK Policy on the Care, Welfare and Treatment of Laboratory Animals. GSK126 and vehicle were administered to mice intraperitoneally. Two-tailed t-tests were conducted assuming two samples of equal variance.
(§3) The optimal cell seeding was determined empirically for all cell lines by examining the growth of a wide range of seeding densities in a 384-well format to identify conditions that permitted proliferation for 6 days. […] Plates were incubated for 6 days at 37° C. in 5% CO2. Cells were then lysed with CellTiter-Glo (Promega) and chemiluminescent signal was detected with a TECAN Safire2 microplate reader. In addition, an untreated plate of cells was harvested at the time of compound addition (T0) to quantify the starting number of cells. CTG values obtained after the 6 day treatment were expressed as a percent of the T0 value and plotted against compound concentration.

Daudi = settings: Homo sapiens, 144 h, BURKITT, EZH2 WT, read-out: AVERAGE GROWTH IC50
Source text: as §1, §2, §3

U-2940 = settings: Homo sapiens, 144 h, DLBCL, EZH2 WT, read-out: AVERAGE GROWTH IC50
Source text: as §1, §2, §3

HD-MY-Z = settings: Homo sapiens, 144 h, HODGKIN'S, EZH2 WT, read-out: AVERAGE GROWTH IC50
Source text: as §1, §2, §3

HS-SULTAN = settings: Homo sapiens, 144 h, BURKITT, EZH2 WT, read-out: AVERAGE GROWTH IC50
Source text: as §1, §2, §3

SU-DHL-4 = settings: Homo sapiens, 144 h, DLBCL, EZH2 Y641S (HET), Y661N (HET), read-out: AVERAGE GROWTH IC50
Source text: as §1, §2, §3

CRO-AP2 = settings: Homo sapiens, 144 h, PEL, AIDS-BCBL, EZH2 WT, read-out: AVERAGE GROWTH IC50
Source text: as §1, §2, §3

NU-DUL-1 = settings: Homo sapiens, 144 h, B-NHL, EZH2 WT, read-out: AVERAGE GROWTH IC50
Source text: as §1, §2, §3

U-698-M = settings: Homo sapiens, 144 h, B-NHL, EZH2 WT, read-out: AVERAGE GROWTH IC50
Source text: as §1, §2, §3

RI-1 = settings: Homo sapiens, 144 h, MCL, EZH2 WT, read-out: AVERAGE GROWTH IC50
Source text: as §1, §2, §3

DB = settings: Homo sapiens, 144 h, DLBCL, EZH2 Y641N (HET), read-out: AVERAGE GROWTH IC50
Source text: as §1, §2, §3

CA46 = settings: Homo sapiens, 144 h, BURKITT, EZH2 D185H (HET), read-out: AVERAGE GROWTH IC50
Source text: as §1, §2, §3

MHH-PREB-1 = settings: Homo sapiens, 144 h, B-NHL, EZH2 WT, read-out: AVERAGE GROWTH IC50
Source text: as §1, §2, §3

Raji = settings: Homo sapiens, 144 h, BURKITT, EZH2 WT, read-out: AVERAGE GROWTH IC50
Source text: as §1, §2, §3

DG-75 = settings: Homo sapiens, 144 h, BURKITT, EZH2 WT, read-out: AVERAGE GROWTH IC50
Source text: as §1, §2, §3

SU-DHL-16 = settings: Homo sapiens, 144 h, B-NHL, EZH2 D185H (HET), read-out: AVERAGE GROWTH IC50
Source text: as §1, §2, §3

WILL-1 = settings: Homo sapiens, 144 h, DLBCL, EZH2 D185H (HET), read-out: AVERAGE GROWTH IC50
Source text: as §1, §2, §3

P3HR-1 = settings: Homo sapiens, 144 h, BURKITT, EZH2 WT, read-out: AVERAGE GROWTH IC50
Source text: as §1, §2, §3

BC-1 = settings: Homo sapiens, BC1, 144 h, AIDS-BCBL, EZH2 WT, read-out: AVERAGE GROWTH IC50
Source text: as §1, §2, §3

Toledo = settings: Homo sapiens, 144 h, DLBCL, EZH2 WT, read-out: AVERAGE GROWTH IC50
Source text: as §1, §2, §3

CI-1 = settings: Homo sapiens, 144 h, B-NHL, EZH2 D185H (HET), read-out: AVERAGE GROWTH IC50
Source text: as §1, §2, §3

WSU-NHL = settings: Homo sapiens, 144 h, FL, EZH2 D185H (HET), read-out: AVERAGE GROWTH IC50
Source text: as §1, §2, §3

Question: What does the source list for `CC[C@H](C)n1cc(C)c2c(C(=O)NCc3c(C)cc(C)[nH]c3=O)cc(-c3ccc(N4CCNCC4)nc3)cc21` [GSK126]?
Answer: IC50 (OCI-LY-19): 1.02 µM; IC50 (Daudi): 1.27 µM; IC50 (U-2940): 4.56 µM; IC50 (HD-MY-Z): 10.7 µM; IC50 (HS-SULTAN): 2.27 µM; IC50 (SU-DHL-4): 4.83 µM; IC50 (CRO-AP2): 1.64 µM; IC50 (NU-DUL-1): 17.1 µM; IC50 (U-698-M): 5.6 µM; IC50 (RI-1): 7.66 µM; IC50 (DB): 0.861 µM; IC50 (CA46): 6.58 µM; IC50 (MHH-PREB-1): 5.3 µM; IC50 (Raji): 7.87 µM; IC50 (DG-75): 3.25 µM; IC50 (SU-DHL-16): 3.28 µM; IC50 (WILL-1): 5.53 µM; IC50 (P3HR-1): 3.21 µM; IC50 (BC-1): 8.29 µM; IC50 (Toledo): 13.8 µM; IC50 (CI-1): 4.28 µM; IC50 (WSU-NHL): 3.54 µM
